From PMC10031741, “A D-cysteine desulfhydrase, SlDCD2, participates in tomato fruit ripening by modulating ROS homoeostasis and ethylene biosynthesis” (Horticulture Research, 2023)

Biological target: T1, SlDCD2 (Solanum lycopersicum, UniProt A0A3Q7EA38)
T1 construct: gene LOC101256906; tag removal not mentioned
T1 sequence (A0A3Q7EA38 1-442): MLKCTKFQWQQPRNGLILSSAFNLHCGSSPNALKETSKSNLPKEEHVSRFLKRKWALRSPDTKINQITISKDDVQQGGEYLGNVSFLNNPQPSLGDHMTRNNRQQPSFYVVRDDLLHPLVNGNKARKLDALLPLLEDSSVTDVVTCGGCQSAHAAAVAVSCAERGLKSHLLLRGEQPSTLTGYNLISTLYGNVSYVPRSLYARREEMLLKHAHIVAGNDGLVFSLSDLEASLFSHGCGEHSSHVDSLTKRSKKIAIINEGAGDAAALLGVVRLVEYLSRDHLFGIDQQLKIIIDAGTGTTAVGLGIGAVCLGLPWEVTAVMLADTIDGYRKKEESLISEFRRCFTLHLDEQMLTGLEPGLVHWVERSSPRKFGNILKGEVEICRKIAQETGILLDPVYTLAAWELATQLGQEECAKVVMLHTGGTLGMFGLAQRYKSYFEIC
Assay: H2S production, methylene blue at […] nm
Assay type: biochemical
Conditions: H2S release; assay as in cited reference

Question: `N[C@H](CS)C(=O)O` [D-cysteine] was tested. Which “H2S production, methylene blue at 670 nm” value did it give?
Answer: Using D-cysteine as the substrate, the enzymatic activity of SlDCD2 was evaluated
